Data: patent US9474734B2, “Compounds for treating inflammation and pain” (Olatec Industries LLC, priority 2012, dated 2016)

System: arachidonic acid-induced ear swelling
Experiment: topical arachidonic acid-induced ear swelling model in mice
Type: in vivo
Conditions: male ICR mice; topical application 30 min before and 15 min after arachidonic acid; measured at 90 minutes; indomethacin 14 mM (0.1 mg/20 μL), 3-(methylthio)propionitrile 375 mM (1.0 mg/20 μL)
Description: The test compounds, indomethacin (positive control), and vehicle were evaluated for anti-inflammatory activity in a topical arachidonic acid-induced ear swelling model in mice. Male ICR mice weighing 22±2 g were used and randomly divided; each group had 10 mice. Arachidonic Acid (0.5 mg in 20 μl of acetone:ethanol/1:1) was applied topically to the anterior and posterior surfaces of the right ear of each mice. Test substances and vehicle, as listed in Table 1 were similarly applied 30 min before and 15 min after arachidonic acid application. The thickness of the right ear and the left ear was measured and the difference calculated as an indication of the inflammation in the right ear. Ear swelling was measured by a Dyer model micrometer gauge at 60 and 90 minutes after arachidonic acid application as an index of inflammation. Percent inhibition was calculated according to the formula: Ic−It/Ic×100, where Ic and It refers to increase of ear thickness (mm) in control and treated mice, respectively. ANOVA and Dunnett's test were employed to ascertain significant difference between vehicle control and treated groups. Significance is set at P<0.05 level.

SMILES	% Inhibition of ear swelling
CSCCC#N [3-(methylthio)propionitrile]	43%
COc1ccc2c(c1)c(CC(=O)O)c(C)n2C(=O)c1ccc(Cl)cc1 [Indomethacin]	53%
